Data as given in patent US7763728B2, “Tetrahydropyridothiophenes” (4SC AG, priority 2005, dated 2010).
pIC50: −log10 of the molar value.

Tests used:
[1] = system: RKO (RKOp27) human colon adenocarcinoma cells; experiment: Alamar Blue cell viability assay, anti-proliferative/cytotoxic activity on proliferating (uninduced) RKOp27 cells; format: cell-based; details: 72 hours incubation, absence of the inducer Ponasterone A, read-out: IC50 RKO p27 uninduced (proliferating)
Outline: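 RKOp27 subclones seeded at 5000 cells/well, compounds added after 24 h in DMEM/10% FCS, quadruplicates, 72 h at 37 °C, 5% CO2. Alamar Blue fluorescence (ex 544/em 590 nm) normalised to untreated cells (1% DMSO medium) as 100%; IC50 from concentration-effect curves.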

[2] = system: RKO colon adenocarcinoma cells (RKOp27) arrested by the expression of ectopic p27Kip1; experiment: Alamar Blue cell viability assay on RKOp27 cells arrested by p27Kip1 expression induced by Ponasterone A; format: cell-based; details: Homo sapiens, 72 hours incubation, 10 μM Ponasterone A, read-out: IC50 RKO p27 induced (arrested)
Outline: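 RKOp27 cells, 15000/well, held in DMEM with 10% FCS and with or without 10 μM Ponasterone A to induce p27Kip1 arrest. Compound dilutions added 24 h after seeding, then 72 h at 37 °C in quadruplicate. Alamar Blue fluorescence (544/590 nm) gave % viability relative to untreated cells.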

Row | SMILES | pIC50 [1] | pIC50 [2]
1 | COc1ccccc1CCC(=O)Nc1sc2c(c1C#N)CCN(C(=O)Cn1cc(C)nc1C)C2 [Example 147, N-{3-Cyano-6-[2-(2,4-dimethyl-imidazol-1-yl)-ethanoyl]-4,5,6,7-tetrahydro-thieno[2,3-c]pyridin-2-yl}-3-(2-methoxy-phenyl)-propionamide] | ≥ 6.52 | ≤ 5.00
2 | COc1ccc(C)cc1CCC(=O)Nc1sc2c(c1C#N)CCN(C(=O)Cc1cccnc1)C2 [Example 37, N-[3-Cyano-6-(2-pyridin-3-yl-ethanoyl)-4,5,6,7-tetrahydro-thieno[2,3-c]pyridin-2-yl]-3-(2-methoxy-5-methyl-phenyl)-propionamide] | ≥ 6.52 | < 4.00
3 | COCC(=O)N1CCc2c(sc(NC(=O)CCc3cccc(OC)c3)c2C#N)C1 [Example 18, N-[3-Cyano-6-(2-methoxy-ethanoyl)-4,5,6,7-tetrahydro-thieno[2,3-c]pyridin-2-yl]-3-(3-methoxy-phenyl)-propionamide] | 5.70 to 6.52 | < 4.00
4 | COc1ccccc1CCC(=O)Nc1sc2c(c1C#N)CCN(C(=O)CCc1cccnc1)C2 [Example 1, N-[3-Cyano-6-(3-pyridin-3-yl-propanoyl)-4,5,6,7-tetrahydro-thieno[2,3-c]pyridin-2-yl]-3-(2-methoxy-phenyl)-propionamide] | ≥ 6.52 | < 4.00
5 | CCOc1ccccc1CCC(=O)Nc1sc2c(c1C#N)CCN(C(=O)Cn1ccnc1)C2 [Example 85, N-[3-Cyano-6-(2-imidazol-1-yl-ethanoyl)-4,5,6,7-tetrahydro-thieno[2,3-c]pyridin-2-yl]-3-(2-ethoxy-phenyl)-propionamide] | ≥ 6.52 | ≤ 4.40
6 | CCCC(=O)N1CCc2c(sc(NC(=O)CCc3ccccc3OC)c2C#N)C1 [Example 91, N-(6-Butyryl-3-cyano-4,5,6,7-tetrahydro-thieno[2,3-c]pyridin-2-yl)-3-(2-methoxy-phenyl)-propionamide] | ≥ 6.52 | < 4.00
7 | COc1cccc(CCC(=O)Nc2sc3c(c2C#N)CCN(C(=O)CCn2cnc(C)c2)C3)c1 [Example 154, N-{3-Cyano-6-[3-(4-methyl-imidazol-1-yl)-propanoyl]-4,5,6,7-tetrahydro-thieno[2,3-c]pyridin-2-yl}-3-(3-methoxy-phenyl)-propionamide] | 5.70 to 6.52 | ≤ 5.00
8 | COc1cccc(CCC(=O)Nc2sc3c(c2C#N)CCN(C(=O)Cc2ccccn2)C3)c1 [Example 31, N-[3-Cyano-6-(2-pyridin-2-yl-ethanoyl)-4,5,6,7-tetrahydro-thieno[2,3-c]pyridin-2-yl]-3-(3-methoxy-phenyl)-propionamide] | ≥ 6.52 | < 4.00
9 | COCCOCC(=O)N1CCc2c(sc(NC(=O)CCc3ccccc3OC)c2C#N)C1 [Example 6, N-{3-Cyano-6-[2-(2-methoxy-ethoxy)-ethanoyl]-4,5,6,7-tetrahydro-thieno[2,3-c]pyridin-2-yl}-3-(2-methoxy-phenyl)-propionamide] | 5.70 to 6.52 | ≤ 4.40
10 | CCOc1ccccc1CCC(=O)Nc1sc2c(c1C#N)CCN(C(=O)CCc1nccn1C)C2 [Example 117, N-{3-Cyano-6-[3-(1-methyl-1H-imidazol-2-yl)-propanoyl]-4,5,6,7-tetrahydro-thieno[2,3-c]pyridin-2-yl}-3-(2-ethoxy-phenyl)-propionamide] | ≥ 6.52 | ≤ 5.00
11 | CCCC(=O)N1CCc2c(sc(NC(=O)CCc3cccc(OC)c3)c2C#N)C1 [Example 23, N-(6-Butyryl-3-cyano-4,5,6,7-tetrahydro-thieno[2,3-c]pyridin-2-yl)-3-(3-methoxy-phenyl)-propionamide] | ≥ 6.52 | < 4.00
12 | COc1ccc(C)cc1CCC(=O)Nc1sc2c(c1C#N)CCN(C(=O)Cn1cc(C)nc1C)C2 [Example 149, N-{3-Cyano-6-[2-(2,4-dimethyl-imidazol-1-yl)-ethanoyl]-4,5,6,7-tetrahydro-thieno[2,3-c]pyridin-2-yl}-3-(2-methoxy-5-methyl-phenyl)-propionamide] | 5.70 to 6.52 | ≤ 5.00
13 | COc1ccc(C)cc1CCC(=O)Nc1sc2c(c1C#N)CCN(C(=O)Cn1cnc(C)c1)C2 [Example 141, N-{3-Cyano-6-[2-(4-methyl-imidazol-1-yl)-ethanoyl]-4,5,6,7-tetrahydro-thieno[2,3-c]pyridin-2-yl}-3-(2-methoxy-5-methyl-phenyl)-propionamide] | 5.70 to 6.52 | ≤ 4.40
14 | COc1ccccc1CCC(=O)Nc1sc2c(c1C#N)CCN(C(=O)CCn1cnc(C)c1)C2 [Example 155, N-{3-Cyano-6-[3-(4-methyl-imidazol-1-yl)-propanoyl]-4,5,6,7-tetrahydro-thieno[2,3-c]pyridin-2-yl}-3-(2-methoxy-phenyl)-propionamide] | 5.70 to 6.52 | ≤ 5.00
15 | COc1ccccc1C(C)CC(=O)Nc1sc2c(c1C#N)CCN(C(=O)Cn1ccnc1C)C2 (racemic) [Example 127, (RS)—N-{3-Cyano-6-[2-(2-methyl-imidazol-1-yl)-ethanoyl]-4,5,6,7-tetrahydro-thieno[2,3-c]pyridin-2-yl}-3-(2-methoxy-phenyl)-butyramide] | ≥ 6.52 | ≤ 4.40
16 | COc1ccc(C)cc1CCC(=O)Nc1sc2c(c1C#N)CCN(C(=O)CCn1ccnc1)C2 [Example 40, N-[3-Cyano-6-(3-imidazol-1-yl-propanoyl)-4,5,6,7-tetrahydro-thieno[2,3-c]pyridin-2-yl]-3-(2-methoxy-5-methyl-phenyl)-propionamide] | 5.70 to 6.52 | ≤ 4.40
17 | COc1cccc(CCC(=O)Nc2sc3c(c2C#N)CCN(C(=O)CCc2nccn2C)C3)c1 [Example 115, N-{3-Cyano-6-[3-(1-methyl-1H-imidazol-2-yl)-propanoyl]-4,5,6,7-tetrahydro-thieno[2,3-c]pyridin-2-yl}-3-(3-methoxy-phenyl)-propionamide] | 5.70 to 6.52 | ≤ 4.40
18 | COc1ccccc1CCC(=O)Nc1sc2c(c1C#N)CCN(C(=O)Cc1ccncc1)C2 [Example 3, N-[3-Cyano-6-(2-pyridin-4-yl-ethanoyl)-4,5,6,7-tetrahydro-thieno[2,3-c]pyridin-2-yl]-3-(2-methoxy-phenyl)-propionamide] | ≥ 6.52 | ≤ 4.40
19 | COc1ccc(C)cc1CCC(=O)Nc1sc2c(c1C#N)CCN(C(=O)CCc1cnccc1OC)C2 [Example 41, N-{3-Cyano-6-[3-(4-methoxy-pyridin-3-yl)-propanoyl]-4,5,6,7-tetrahydro-thieno[2,3-c]pyridin-2-yl}-3-(2-methoxy-5-methyl-phenyl)-propionamide] | 5.70 to 6.52 | ≤ 4.40
20 | CCCC(=O)N1CCc2c(sc(NC(=O)CC(C)c3ccccc3OCC)c2C#N)C1 (racemic) [Example 90, (RS)—N-(6-Butyryl-3-cyano-4,5,6,7-tetrahydro-thieno[2,3-c]pyridin-2-yl)-3-(2-ethoxy-phenyl)-butyramide] | ≥ 6.52 | < 4.00
21 | COCC(=O)N1CCc2c(sc(NC(=O)CCc3ccccc3OC)c2C#N)C1 [Example 5, N-[3-Cyano-6-(2-methoxy-ethanoyl)-4,5,6,7-tetrahydro-thieno[2,3-c]pyridin-2-yl]-3-(2-methoxy-phenyl)-propionamide] | ≥ 6.52 | < 4.00
22 | CCOc1ccccc1C(C)CC(=O)Nc1sc2c(c1C#N)CCN(C(=O)CCn1ccnc1C)C2 (racemic) [Example 106, (RS)—N-{3-Cyano-6-[3-(2-methyl-imidazol-1-yl)-propanoyl]-4,5,6,7-tetrahydro-thieno[2,3-c]pyridin-2-yl}-3-(2-ethoxy-phenyl)-butyramide] | 5.70 to 6.52 | ≤ 5.00
23 | COc1ccc(C)cc1CCC(=O)Nc1sc2c(c1C#N)CCN(C(=O)CCc1ccccn1)C2 [Example 96, N-[3-Cyano-6-(3-pyridin-2-yl-propanoyl)-4,5,6,7-tetrahydro-thieno[2,3-c]pyridin-2-yl]-3-(2-methoxy-5-methyl-phenyl)-propionamide] | 5.70 to 6.52 | < 4.00
24 | COc1ccccc1C(C)CC(=O)Nc1sc2c(c1C#N)CCN(C(=O)Cn1cnc(C)c1)C2 (racemic) [Example 135, (RS)—N-{3-Cyano-6-[2-(4-methyl-imidazol-1-yl)-ethanoyl]-4,5,6,7-tetrahydro-thieno[2,3-c]pyridin-2-yl}-3-(2-methoxy-phenyl)-butyramide] | 5.70 to 6.52 | ≤ 4.40
25 | COc1ccccc1C(C)CC(=O)Nc1sc2c(c1C#N)CCN(C(=O)Cn1cc(C)nc1C)C2 (racemic) [Example 144, (RS)—N-{3-Cyano-6-[2-(2,4-dimethyl-imidazol-1-yl)-ethanoyl]-4,5,6,7-tetrahydro-thieno[2,3-c]pyridin-2-yl}-3-(2-methoxy-phenyl)-butyramide] | 5.70 to 6.52 | ≤ 5.00
26 | COc1ccccc1C(C)CC(=O)Nc1sc2c(c1C#N)CCN(C(=O)CCc1cccnc1)C2 (racemic) [Example 77, (RS)—N-[3-Cyano-6-(3-pyridin-3-yl-propanoyl)-4,5,6,7-tetrahydro-thieno[2,3-c]pyridin-2-yl]-3-(2-methoxy-phenyl)-butyramide] | 5.70 to 6.52 | < 4.00
27 | CCOc1ccccc1CCC(=O)Nc1sc2c(c1C#N)CCN(C(=O)Cn1cnc(C)c1)C2 [Example 140, N-{3-Cyano-6-[2-(4-methyl-imidazol-1-yl)-ethanoyl]-4,5,6,7-tetrahydro-thieno[2,3-c]pyridin-2-yl}-3-(2-ethoxy-phenyl)-propionamide] | ≥ 6.52 | ≤ 4.40
